According to patent US20250145606A1 (Arcus Biosciences, Inc., priority 2023, published 2025):

What was measured:
[1] = target: FLT3 (Homo sapiens (Human), UniProt P36888); assay: Inhibition of FLT3 kinase activity (HTRF KinEASE-TK); assay type: biochemical; conditions: biochemical, HTRF KinEASE-TK
Outline: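 FLT3 tyrosine kinase activity was measured with the HTRF KinEASE-TK kit by following phosphorylation of a biotinylated TK peptide. After the 45 min reaction, 10 μL of detection mix was added: 0.2 μM (2×) Streptavidin-XL665 and 2 μM (2×) TK-Antibody-Cryptate in detection buffer. After 60 min, TR-FRET was read on an Envision as the 665 nm/620 nm emission ratio with 320 nm excitation.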

[2] = target: PDGFRβ (Homo sapiens (Human), UniProt P09619); assay: Inhibition of PDGFRβ kinase activity (HTRF KinEASE-TK); conditions: biochemical, HTRF KinEASE-TK
Outline: (§1)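 Human kinases were preincubated 1 h at rt with a 22-point 1:2 compound titration, then run 120 min at rt with biotinylated TK peptide and ATP (2× mix: c-Kit 16 μM, PDGFRα 1 μM, PDGFRβ 40 μM, CSF1R 20 μM). Phosphopeptide was read by HTRF TR-FRET (665/620 nm), and IC50s came from 4-parameter fits.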

[3] = test system: Phospho-KIT (Y703) in M07e cells; assay: Phospho-KIT (Y703) cellular assay in M07e cells; assay type: cell-based; conditions: M-07e; Phospho-KIT (Y703), M07e cells; read-out: M07e Cell IC50
Outline: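 Serum-starved M07e cells preincubated 50 min at 37° C with 11-point half-log compound titration, then stimulated 10 min with SCF at 90.9 ng/mL final. Fixed, permeabilized cells stained for phospho-KIT Y703 and read by flow cytometry (live-gated geometric mean); IC50 by 4-parameter fit normalized to DMSO and positive control.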

[4] = target: PDGFRα (Homo sapiens (Human), UniProt P16234); assay: Inhibition of PDGFRα kinase activity (HTRF KinEASE-TK); conditions: biochemical, HTRF KinEASE-TK
Outline: as §1

[5] = target: c-Kit (Homo sapiens (Human), UniProt P10721); assay: Inhibition of c-Kit kinase activity (HTRF KinEASE-TK); assay type: biochemical; conditions: biochemical, HTRF KinEASE-TK
Outline: as §1

[6] = target: CSF1R (Homo sapiens (Human), UniProt P07333); assay: Inhibition of CSF1R kinase activity (HTRF KinEASE-TK); conditions: biochemical, HTRF KinEASE-TK
Outline: as §1

PDGFRα, sequence (P16234 24-1089): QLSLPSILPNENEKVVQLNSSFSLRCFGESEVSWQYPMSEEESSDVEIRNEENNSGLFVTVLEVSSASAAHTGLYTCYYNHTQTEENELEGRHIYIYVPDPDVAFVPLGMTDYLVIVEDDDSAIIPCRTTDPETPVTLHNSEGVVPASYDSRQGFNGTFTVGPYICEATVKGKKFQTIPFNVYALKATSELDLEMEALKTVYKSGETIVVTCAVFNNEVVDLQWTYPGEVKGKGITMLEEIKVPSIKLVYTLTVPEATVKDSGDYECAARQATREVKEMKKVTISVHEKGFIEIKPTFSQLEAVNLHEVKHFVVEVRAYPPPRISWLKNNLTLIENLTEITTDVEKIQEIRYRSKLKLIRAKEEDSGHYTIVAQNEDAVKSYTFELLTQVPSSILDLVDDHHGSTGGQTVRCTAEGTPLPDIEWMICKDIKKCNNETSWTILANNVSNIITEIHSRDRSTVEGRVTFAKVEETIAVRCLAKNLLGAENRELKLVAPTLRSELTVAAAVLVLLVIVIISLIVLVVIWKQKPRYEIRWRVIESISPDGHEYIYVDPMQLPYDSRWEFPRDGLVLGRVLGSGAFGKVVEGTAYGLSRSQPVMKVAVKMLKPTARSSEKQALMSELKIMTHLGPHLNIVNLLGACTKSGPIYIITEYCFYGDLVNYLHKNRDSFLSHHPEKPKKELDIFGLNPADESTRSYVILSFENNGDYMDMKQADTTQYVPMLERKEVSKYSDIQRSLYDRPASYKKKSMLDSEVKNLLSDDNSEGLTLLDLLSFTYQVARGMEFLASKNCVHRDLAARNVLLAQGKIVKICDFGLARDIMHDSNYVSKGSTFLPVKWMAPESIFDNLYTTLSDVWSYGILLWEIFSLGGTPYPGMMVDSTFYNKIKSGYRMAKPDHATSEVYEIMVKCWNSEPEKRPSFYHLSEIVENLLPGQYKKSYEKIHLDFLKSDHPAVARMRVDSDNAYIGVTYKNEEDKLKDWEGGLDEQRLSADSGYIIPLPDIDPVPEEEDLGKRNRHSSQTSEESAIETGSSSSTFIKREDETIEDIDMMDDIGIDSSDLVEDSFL
FLT3, sequence (P36888 27-993): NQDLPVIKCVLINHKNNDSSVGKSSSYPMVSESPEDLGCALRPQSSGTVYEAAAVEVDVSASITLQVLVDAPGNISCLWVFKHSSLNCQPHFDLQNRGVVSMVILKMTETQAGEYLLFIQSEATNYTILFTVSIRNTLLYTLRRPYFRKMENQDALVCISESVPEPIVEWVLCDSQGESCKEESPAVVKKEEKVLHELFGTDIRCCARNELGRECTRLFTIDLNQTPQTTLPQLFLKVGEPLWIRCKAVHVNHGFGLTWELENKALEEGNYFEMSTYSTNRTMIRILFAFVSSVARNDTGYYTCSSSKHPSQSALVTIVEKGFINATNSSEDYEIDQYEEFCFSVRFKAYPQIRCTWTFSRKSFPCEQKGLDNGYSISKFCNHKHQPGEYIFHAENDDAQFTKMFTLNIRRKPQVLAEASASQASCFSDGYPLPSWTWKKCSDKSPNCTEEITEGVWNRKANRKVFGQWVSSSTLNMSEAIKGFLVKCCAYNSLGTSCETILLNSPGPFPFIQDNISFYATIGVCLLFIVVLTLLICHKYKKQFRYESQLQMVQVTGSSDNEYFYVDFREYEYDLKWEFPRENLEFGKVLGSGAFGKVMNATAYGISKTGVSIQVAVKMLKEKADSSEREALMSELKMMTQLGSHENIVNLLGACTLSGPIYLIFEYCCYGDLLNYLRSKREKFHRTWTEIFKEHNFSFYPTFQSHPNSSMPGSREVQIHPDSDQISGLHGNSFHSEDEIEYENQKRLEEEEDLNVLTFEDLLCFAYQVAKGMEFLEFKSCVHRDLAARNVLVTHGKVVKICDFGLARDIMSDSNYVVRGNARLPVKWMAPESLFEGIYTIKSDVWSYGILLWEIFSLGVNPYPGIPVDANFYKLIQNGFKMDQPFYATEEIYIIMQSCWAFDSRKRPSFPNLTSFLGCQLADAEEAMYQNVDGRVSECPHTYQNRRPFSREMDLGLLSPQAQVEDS
CSF1R, sequence (P07333 20-972): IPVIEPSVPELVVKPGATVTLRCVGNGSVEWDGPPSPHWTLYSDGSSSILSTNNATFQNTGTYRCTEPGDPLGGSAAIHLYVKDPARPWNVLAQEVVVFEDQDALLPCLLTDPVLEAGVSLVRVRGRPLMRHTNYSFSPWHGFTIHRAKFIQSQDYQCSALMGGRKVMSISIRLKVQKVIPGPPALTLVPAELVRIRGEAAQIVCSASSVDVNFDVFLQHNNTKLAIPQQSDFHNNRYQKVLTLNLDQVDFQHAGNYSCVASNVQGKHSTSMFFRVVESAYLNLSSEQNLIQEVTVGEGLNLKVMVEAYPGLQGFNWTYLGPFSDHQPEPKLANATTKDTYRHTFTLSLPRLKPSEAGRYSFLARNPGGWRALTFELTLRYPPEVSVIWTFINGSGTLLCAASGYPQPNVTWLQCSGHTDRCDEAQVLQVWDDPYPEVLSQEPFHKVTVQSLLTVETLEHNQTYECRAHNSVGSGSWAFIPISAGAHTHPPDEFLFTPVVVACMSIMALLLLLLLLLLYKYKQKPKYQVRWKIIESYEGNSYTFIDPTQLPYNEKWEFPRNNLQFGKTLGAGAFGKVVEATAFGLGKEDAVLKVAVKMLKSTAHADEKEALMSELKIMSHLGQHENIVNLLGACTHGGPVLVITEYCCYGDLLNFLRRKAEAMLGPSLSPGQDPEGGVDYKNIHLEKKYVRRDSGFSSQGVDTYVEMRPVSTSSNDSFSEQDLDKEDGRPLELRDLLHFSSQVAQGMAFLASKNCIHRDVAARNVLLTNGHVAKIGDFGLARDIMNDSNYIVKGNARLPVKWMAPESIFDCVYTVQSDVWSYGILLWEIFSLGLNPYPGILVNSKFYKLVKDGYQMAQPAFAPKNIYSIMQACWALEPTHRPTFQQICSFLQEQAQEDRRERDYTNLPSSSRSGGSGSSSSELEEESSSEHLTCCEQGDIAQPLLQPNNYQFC
PDGFRβ, sequence (P09619 33-1106): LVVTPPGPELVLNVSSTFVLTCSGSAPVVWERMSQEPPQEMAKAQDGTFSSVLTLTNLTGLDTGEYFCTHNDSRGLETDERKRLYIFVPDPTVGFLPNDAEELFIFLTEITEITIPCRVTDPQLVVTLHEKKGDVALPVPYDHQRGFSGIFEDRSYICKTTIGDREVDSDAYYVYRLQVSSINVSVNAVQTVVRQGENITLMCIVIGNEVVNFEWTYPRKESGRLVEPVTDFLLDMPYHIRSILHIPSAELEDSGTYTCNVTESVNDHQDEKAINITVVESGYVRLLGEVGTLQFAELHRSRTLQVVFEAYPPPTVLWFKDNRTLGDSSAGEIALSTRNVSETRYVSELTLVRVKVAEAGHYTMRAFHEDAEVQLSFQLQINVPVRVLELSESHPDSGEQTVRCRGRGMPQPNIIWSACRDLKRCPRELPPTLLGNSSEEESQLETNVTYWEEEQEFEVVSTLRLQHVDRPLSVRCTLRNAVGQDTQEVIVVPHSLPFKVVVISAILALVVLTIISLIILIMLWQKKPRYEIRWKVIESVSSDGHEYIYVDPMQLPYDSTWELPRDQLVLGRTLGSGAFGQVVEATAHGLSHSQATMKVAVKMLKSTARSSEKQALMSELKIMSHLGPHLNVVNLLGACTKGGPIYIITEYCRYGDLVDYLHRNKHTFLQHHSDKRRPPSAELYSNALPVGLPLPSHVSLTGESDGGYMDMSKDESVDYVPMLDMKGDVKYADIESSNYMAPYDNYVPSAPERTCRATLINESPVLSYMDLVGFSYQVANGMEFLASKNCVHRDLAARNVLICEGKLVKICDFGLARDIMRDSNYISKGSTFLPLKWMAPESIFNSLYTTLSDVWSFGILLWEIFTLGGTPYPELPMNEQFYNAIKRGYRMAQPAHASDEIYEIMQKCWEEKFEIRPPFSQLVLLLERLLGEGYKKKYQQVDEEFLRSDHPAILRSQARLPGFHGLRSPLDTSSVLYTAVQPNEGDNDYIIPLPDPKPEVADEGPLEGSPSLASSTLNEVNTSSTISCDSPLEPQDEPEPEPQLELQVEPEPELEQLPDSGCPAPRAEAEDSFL
c-Kit, sequence (P10721 26-976): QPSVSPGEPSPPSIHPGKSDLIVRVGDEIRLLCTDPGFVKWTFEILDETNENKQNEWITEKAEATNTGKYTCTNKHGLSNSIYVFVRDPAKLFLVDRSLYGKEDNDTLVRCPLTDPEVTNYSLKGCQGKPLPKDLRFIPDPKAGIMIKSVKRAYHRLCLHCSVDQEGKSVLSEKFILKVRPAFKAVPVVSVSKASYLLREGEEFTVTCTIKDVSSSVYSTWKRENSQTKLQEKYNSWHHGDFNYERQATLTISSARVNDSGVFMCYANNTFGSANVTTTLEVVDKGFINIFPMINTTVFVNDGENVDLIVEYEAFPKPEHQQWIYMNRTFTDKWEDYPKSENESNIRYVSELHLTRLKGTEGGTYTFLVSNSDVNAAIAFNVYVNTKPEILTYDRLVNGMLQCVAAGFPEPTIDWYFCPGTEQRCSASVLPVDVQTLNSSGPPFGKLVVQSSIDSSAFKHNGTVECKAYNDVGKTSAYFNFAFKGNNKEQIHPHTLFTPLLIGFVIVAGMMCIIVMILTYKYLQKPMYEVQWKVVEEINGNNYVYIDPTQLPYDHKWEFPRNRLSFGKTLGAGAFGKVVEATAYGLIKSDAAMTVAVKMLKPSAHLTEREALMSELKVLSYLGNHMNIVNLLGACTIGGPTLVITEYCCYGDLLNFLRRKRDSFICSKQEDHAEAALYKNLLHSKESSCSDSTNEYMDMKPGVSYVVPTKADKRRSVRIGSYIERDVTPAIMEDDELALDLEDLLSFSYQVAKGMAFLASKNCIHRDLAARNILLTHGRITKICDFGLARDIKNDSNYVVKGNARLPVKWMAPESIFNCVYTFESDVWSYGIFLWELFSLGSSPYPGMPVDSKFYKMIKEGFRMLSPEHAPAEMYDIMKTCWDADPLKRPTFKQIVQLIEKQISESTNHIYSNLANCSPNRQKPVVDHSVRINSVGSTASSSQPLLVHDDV

Row | SMILES | IC50 [1] | IC50 [2] | IC50 [3] | IC50 [4] | IC50 [5] | IC50 [6]
1 | Nc1ncc(C(=O)Nc2cc(C(=O)Nc3ccc(OC4CC4)cn3)c(F)cc2Cl)s1 [Example 209, 2-Amino-N-[2-chloro-5-[(5-cyclopropyloxypyridin-2-yl)carbamoyl]-4-fluorophenyl]-1,3-thiazole-5-carboxamide] | > 1000 nM | 100 to 1000 nM | < 100 nM | > 1000 nM | < 100 nM | 100 to 1000 nM
2 | Nc1ncc(C(=O)Nc2cc(C(=O)Nc3ccc(OC(F)(F)F)cn3)c(F)cc2F)s1 [Example 210, 2-Amino-N-[2,4-difluoro-5-[[5-(trifluoromethoxy)pyridin-2-yl]carbamoyl]phenyl]-1,3-thiazole-5-carboxamide] | > 1000 nM | 100 to 1000 nM | < 100 nM | > 1000 nM | < 100 nM | 100 to 1000 nM
3 | CCOc1ccc(NC(=O)c2cc(NC(=O)c3cnc(N)s3)c(F)cc2F)nc1 [Example 212, 2-Amino-N-[5-[(5-ethoxypyridin-2-yl)carbamoyl]-2,4-difluorophenyl]-1,3-thiazole-5-carboxamide] | > 1000 nM | > 1000 nM | < 100 nM | > 1000 nM | < 100 nM | > 1000 nM
4 | Nc1ncc(C(=O)Nc2cc(C(=O)Nc3ccc(OCC(F)F)cn3)c(F)cc2F)s1 [Example 213, 2-Amino-N-[5-[[5-(2,2-difluoroethoxy)pyridin-2-yl]carbamoyl]-2,4-difluorophenyl]-1,3-thiazole-5-carboxamide] | > 1000 nM | > 1000 nM | < 100 nM | > 1000 nM | < 100 nM | > 1000 nM
5 | COCc1ccc(NC(=O)c2cc(NC(=O)c3cnc(N)s3)c(F)cc2F)nc1 [Example 215, 2-Amino-N-[2,4-difluoro-5-[[5-(methoxymethyl)pyridin-2-yl]carbamoyl]phenyl]-1,3-thiazole-5-carboxamide] | > 1000 nM | > 1000 nM | > 1000 nM | > 1000 nM | 100 to 1000 nM | > 1000 nM
6 | Nc1ncc(C(=O)Nc2cc(C(=O)Nc3ccc(C(F)(F)F)cn3)c(F)cc2F)s1 [Example 216, 2-Amino-N-[2,4-difluoro-5-[[5-(trifluoromethyl)pyridin-2-yl]carbamoyl]phenyl]-1,3-thiazole-5-carboxamide] | > 1000 nM | > 1000 nM | < 100 nM | > 1000 nM | < 100 nM | 100 to 1000 nM
7 | Nc1ncc(C(=O)Nc2cc(C(=O)Nc3ccc(C(F)F)cn3)c(F)cc2F)s1 [Example 217, 2-Amino-N-[5-[[5-(difluoromethyl)pyridin-2-yl]carbamoyl]-2,4-difluorophenyl]-1,3-thiazole-5-carboxamide] | > 1000 nM | > 1000 nM | < 100 nM | > 1000 nM | < 100 nM | > 1000 nM
8 | CC(C)Oc1ccc(NC(=O)c2cc(NC(=O)c3cnc(N)s3)c(F)cc2F)nc1 [Example 218, 2-Amino-N-[2,4-difluoro-5-[(5-propan-2-yloxypyridin-2-yl)carbamoyl]phenyl]-1,3-thiazole-5-carboxamide] | > 1000 nM | > 1000 nM | < 100 nM | > 1000 nM | < 100 nM | > 1000 nM
9 | Nc1ncc(C(=O)Nc2cc(C(=O)Nc3ccc(OC(F)F)cn3)c(F)cc2F)s1 [Example 219, 2-Amino-N-[5-[[5-(difluoromethoxy)pyridin-2-yl]carbamoyl]-2,4-difluorophenyl]-1,3-thiazole-5-carboxamide] | > 1000 nM | > 1000 nM | < 100 nM | > 1000 nM | < 100 nM | > 1000 nM

Results, then the molecule that gave them:

Row | IC50 [1] | IC50 [2] | IC50 [3] | IC50 [4] | IC50 [5] | IC50 [6] | SMILES
10 | > 1000 nM | 100 to 1000 nM | < 100 nM | > 1000 nM | < 100 nM | 100 to 1000 nM | COc1ccnc(NC(=O)c2cc(NC(=O)c3cnc(N)s3)c(C)cc2F)c1 [Example 189, 2-Amino-N-[4-fluoro-5-[(4-methoxypyridin-2-yl)carbamoyl]-2-methylphenyl]-1,3-thiazole-5-carboxamide]
11 | > 1000 nM | > 1000 nM | < 100 nM | > 1000 nM | < 100 nM | > 1000 nM | Cc1cc(F)c(C(=O)Nc2ccn([C@H]3CCOC3)n2)cc1NC(=O)c1cnc(N)s1 [Example 191, 2-Amino-N-[4-fluoro-2-methyl-5-[[1-[(3S)-oxolan-3-yl]pyrazol-3-yl]carbamoyl]phenyl]-1,3-thiazole-5-carboxamide]
12 | > 1000 nM | 100 to 1000 nM | < 100 nM | > 1000 nM | < 100 nM | > 1000 nM | Cc1cc(F)c(C(=O)NCC2(F)CCC2)cc1NC(=O)c1cnc(N)s1 [Example 192, 2-amino-N-[4-fluoro-5-[(1-fluorocyclobutyl)methylcarbamoyl]-2-methylphenyl]-1,3-thiazole-5-carboxamide]
13 | > 1000 nM | > 1000 nM | 100 to 1000 nM | > 1000 nM | < 100 nM | > 1000 nM | Cc1cc(F)c(C(=O)N[C@H]2CCOC2)cc1NC(=O)c1cnc(N)s1 [Example 194, 2-Amino-N-[4-fluoro-2-methyl-5-[[(3S)-oxolan-3-yl]carbamoyl]phenyl]-1,3-thiazole-5-carboxamide]
14 | 100 to 1000 nM | > 1000 nM | < 100 nM | > 1000 nM | < 100 nM | > 1000 nM | Cc1cc(F)c(C(=O)Nc2ccc(COC(C)C)cn2)cc1NC(=O)c1cnc(N)s1 [Example 195, 2-Amino-N-[4-fluoro-2-methyl-5-[[5-(propan-2-yloxymethyl)pyridin-2-yl]carbamoyl]phenyl]-1,3-thiazole-5-carboxamide]
15 | > 1000 nM | > 1000 nM | < 100 nM | > 1000 nM | < 100 nM | > 1000 nM | CCOCc1ccc(NC(=O)c2cc(NC(=O)c3cnc(N)s3)c(C)cc2F)nc1 [Example 196, 2-Amino-N-[5-[[5-(ethoxymethyl)pyridin-2-yl]carbamoyl]-4-fluoro-2-methylphenyl]-1,3-thiazole-5-carboxamide]
16 | > 1000 nM | > 1000 nM | < 100 nM | > 1000 nM | < 100 nM | > 1000 nM | COCc1ccc(NC(=O)c2cc(NC(=O)c3cnc(N)s3)c(Cl)cc2F)nc1 [Example 202, 2-Amino-N-[2-chloro-4-fluoro-5-[[5-(methoxymethyl)pyridin-2-yl]carbamoyl]phenyl]-1,3-thiazole-5-carboxamide]
17 | > 1000 nM | 100 to 1000 nM | < 100 nM | > 1000 nM | < 100 nM | 100 to 1000 nM | Nc1ncc(C(=O)Nc2cc(C(=O)Nc3ncc(C4CC4)cn3)c(F)cc2Cl)s1 [Example 203, 2-Amino-N-[2-chloro-5-[(5-cyclopropylpyrimidin-2-yl)carbamoyl]-4-fluorophenyl]-1,3-thiazole-5-carboxamide]
18 | > 1000 nM | 100 to 1000 nM | < 100 nM | 100 to 1000 nM | < 100 nM | 100 to 1000 nM | Nc1ncc(C(=O)Nc2cc(C(=O)Nc3cnc(C4CC4)nc3)c(F)cc2Cl)s1 [Example 204, 2-Amino-N-[2-chloro-5-[(2-cyclopropylpyrimidin-5-yl)carbamoyl]-4-fluorophenyl]-1,3-thiazole-5-carboxamide]
19 | > 1000 nM | < 100 nM | < 100 nM | 100 to 1000 nM | < 100 nM | < 100 nM | Nc1ncc(C(=O)Nc2cc(C(=O)Nc3cnc(C4CC4)cn3)c(F)cc2Cl)s1 [Example 205, 2-Amino-N-[2-chloro-5-[(5-cyclopropylpyrazin-2-yl)carbamoyl]-4-fluorophenyl]-1,3-thiazole-5-carboxamide]
20 | > 1000 nM | 100 to 1000 nM | < 100 nM | > 1000 nM | < 100 nM | 100 to 1000 nM | Nc1ncc(C(=O)Nc2cc(C(=O)Nc3ccc(C(F)F)cn3)c(F)cc2Cl)s1 [Example 206, 2-Amino-N-[2-chloro-5-[[5-(difluoromethyl)pyridin-2-yl]carbamoyl]-4-fluorophenyl]-1,3-thiazole-5-carboxamide]
21 | > 1000 nM | 100 to 1000 nM | < 100 nM | > 1000 nM | < 100 nM | 100 to 1000 nM | Nc1ncc(C(=O)Nc2cc(C(=O)Nc3ccc(OC(F)F)cn3)c(F)cc2Cl)s1 [Example 208, 2-Amino-N-[2-chloro-5-[[5-(difluoromethoxy)pyridin-2-yl]carbamoyl]-4-fluorophenyl]-1,3-thiazole-5-carboxamide]
